Source: US11739070B2, “C5A receptor modulators” (IDORSIA PHARMACEUTICALS LTD, priority 2018, dated 2023)

Target: T1, C5AR1 (Homo sapiens, UniProt P21730)
T1 construct: host or cells: CHO-K1
T1 sequence (P21730 1-350): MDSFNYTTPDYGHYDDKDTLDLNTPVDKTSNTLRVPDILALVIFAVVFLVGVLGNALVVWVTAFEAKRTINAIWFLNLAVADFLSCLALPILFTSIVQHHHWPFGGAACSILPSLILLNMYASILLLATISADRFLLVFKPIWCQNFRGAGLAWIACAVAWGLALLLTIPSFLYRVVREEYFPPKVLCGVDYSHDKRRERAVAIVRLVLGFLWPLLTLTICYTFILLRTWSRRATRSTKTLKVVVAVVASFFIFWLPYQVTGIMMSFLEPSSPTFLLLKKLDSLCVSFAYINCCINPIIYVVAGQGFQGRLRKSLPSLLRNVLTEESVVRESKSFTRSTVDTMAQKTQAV
Assay: hC5a DISCO IC50 assay (PathHunter beta-arrestin, antagonist mode)
Type: cell-based
Settings: CHO-K1 C5AR1 beta-arrestin cell line; antagonist vs 1-10 nM C5a agonist; geometric mean values; read-out: C5aR IC50
Description: II. Biological Assays In Vitro Assay hC5a DISCO IC50 Assay
5 μl Antagonist at 6-fold end concentration or DMSO control is added to assay medium and subsequently 5 μl 1-10 nM C5a agonist at 6 fold end concentration. Cells are centrifuged for 1 min at 1000 rpm and incubated for 1.5 hour in at 37° C. Plates are equilibrated at room temperature for several minutes before adding 12 μl/well Detection Reagent (PathHunter Detection Kit, DiscoverX, Cat #93-0001). Plates are centrifuged for 1 min at 1000 rpm and incubated for 45 minutes at RT before being measured on a Fluostar Optima, BMG Labtech. IC50 values are calculated from a serial dilution range of antagonist using inhouse software and given in nmol/l.
The calculated IC50 values may fluctuate depending on the daily cellular assay performance. Fluctuations of this kind are known to those skilled in the art. Average IC50 values from several measurements are given as geometric mean values.

IC50 [nM]	SMILES
65	COc1cccc2c1n(Cc1ccccc1C(F)(F)F)c(=O)n2[C@@H]1CCN(C(=O)OC(C)C)C1 [Example 61, (R)-3-[4-Methoxy-2-oxo-3-(2-trifluoromethyl-benzyl)-2,3-dihydro-benzoimidazol-1-yl]-pyrrolidine-1-carboxylic acid isopropyl ester]
99	CCCCOC(=O)N1CC[C@@H](n2c(=O)n(Cc3ccccc3C(F)(F)F)c3c(OC)cccc32)C1 [Example 62, (R)-3-[4-Methoxy-2-oxo-3-(2-trifluoromethyl-benzyl)-2,3-dihydro-benzoimidazol-1-yl]-pyrrolidine-1-carboxylic acid butyl ester]
729	COc1cccc2c1n(Cc1ccccc1C(F)(F)F)c(=O)n2[C@@H]1CCN(C(=O)Oc2ccccc2)C1 [Example 63, (R)-3-[4-Methoxy-2-oxo-3-(2-trifluoromethyl-benzyl)-2,3-dihydro-benzoimidazol-1-yl]-pyrrolidine-1-carboxylic acid phenyl ester]
396	COc1ccccc1Cn1c(=O)n([C@@H]2CCN(C(=O)OC(C)(C)C)C2)c2cccc(OC)c21 [Example 65, (R)-3-[4-Methoxy-3-(2-methoxy-benzyl)-2-oxo-2,3-dihydro-benzoimidazol-1-yl]-pyrrolidine-1-carboxylic acid tert-butyl ester]
36	COc1ccccc1Cn1c(=O)n([C@@H]2CCN(c3c(C)cccc3C)C2)c2cccc(OC)c21 [Example 67, 1-[(R)-1-(2,6-Dimethyl-phenyl)-pyrrolidin-3-yl]-4-methoxy-3-(2-methoxy-benzyl)-1,3-dihydro-benzoimidazol-2-one]
2820	COc1cccc2c1n(Cc1ccccc1C(F)(F)F)c(=O)n2[C@@H]1CCN(c2nnc(C(C)C)o2)C1 [Example 69, 1-[(R)-1-(5-Isopropyl-[1,3,4]oxadiazol-2-yl)-pyrrolidin-3-yl]-4-methoxy-3-(2-trifluoromethyl-benzyl)-1,3-dihydro-benzoimidazol-2-one]
133	COc1cccc2c1n(Cc1ccccc1C(F)(F)F)c(=O)n2[C@@H]1CCN(c2c(C=O)c(C)nn2C)C1 [Example 71, 5-{(R)-3-[4-Methoxy-2-oxo-3-(2-trifluoromethyl-benzyl)-2,3-dihydro-benzoimidazol-1-yl]-pyrrolidin-1-yl}-1,3-dimethyl-1H-pyrazole-4-carbaldehyde]

Second part, the compound before the results:

SMILES	IC50 [nM]
CCOC(=O)N1CC[C@@H](n2c(=O)n(Cc3ccccc3C(F)(F)F)c3c(OC)cccc32)C1 [Example 60, (R)-3-[4-Methoxy-2-oxo-3-(2-trifluoromethyl-benzyl)-2,3-dihydro-benzoimidazol-1-yl]-pyrrolidine-1-carboxylic acid ethyl ester]	84
COc1cccc2c1n(Cc1ncccc1C(F)(F)F)c(=O)n2C1CCN(C(=O)OC(C)(C)C)CC1 [Example 64, 4-[4-Methoxy-2-oxo-3-(3-trifluoromethyl-pyridin-2-ylmethyl)-2,3-dihydro-benzoimidazol-1-yl]-piperidine-1-carboxylic acid tert-butyl ester]	2920
COc1cccc2c1n(Cc1ccccc1C(F)(F)F)c(=O)n2[C@@H]1CCN(c2c(C)ccnc2C)C1 [Example 66, 1-[(R)-1-(2,4-Dimethyl-pyridin-3-yl)-pyrrolidin-3-yl]-4-methoxy-3-(2-trifluoromethyl-benzyl)-1,3-dihydro-benzoimidazol-2-one]	60
COc1ccccc1Cn1c(=O)n([C@@H]2CCN(c3c(F)cccc3F)C2)c2cccc(OC)c21 [Example 68, 1-[(R)-1-(2,6-Difluoro-phenyl)-pyrrolidin-3-yl]-4-methoxy-3-(2-methoxy-benzyl)-1,3-dihydro-benzoimidazol-2-one]	84
COc1cccc2c1n(Cc1ccccc1C(F)(F)F)c(=O)n2[C@@H]1CCN(C(=O)OC2(C)COC2)C1 [Example 70, (R)-3-[4-Methoxy-2-oxo-3-(2-trifluoromethyl-benzyl)-2,3-dihydro-benzoimidazol-1-yl]-pyrrolidine-1-carboxylic acid 3-methyl-oxetan-3-yl ester]	538
